Consider 16 molecules from patent US20100125059A1, “1-BIARYLAZETIDINONE DERIVATIVE” (Teijin Pharma Limited, priority 2007, published 2010).

Where two headings read alike, the source gives them in different places. Bounds are passed on as bounds.

The subject of experiment [1] is hamsters fed a high cholesterol diet. The experiment in a line: Measurement of lipid lowering effect in hamsters fed a high cholesterol diet. Format: in vivo, Male Golden Syrian hamsters. The note with it: for inhibition in vivo at 0.1 mg/kg / inhibition in vivo at 0.01 mg/kg: Mesocricetus auratus, po, 168 h, gavage once daily, 7 days; for a serum TC lowering effect at a dose of 0.1 mg/kg: Table 22, suppression rate of an increase in serum TC concentration. An outline of the steps: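 Male Golden Syrian hamsters (6/group) on 0.5% cholesterol diet, dosed by gavage once daily in corn oil at 0.01 to 10 mg/kg; serum and liver sampled 4 h after last dose. TC, TG and LDL-C measured enzymatically; effects expressed as % suppression versus control and normal-diet groups.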

For a further experiment, the system named is Caco-2 cells. Kind of experiment: Cholesterol absorption inhibition assay (in vitro), [14C] cholesterol mixed micelles. Format: cell-based. The note with it: Homo sapiens, 24 hours, read-out: cholesterol absorption inhibitory activity; for inhibition at 12.5 µM: concentration of 12.5 μM; for inhibition at 10 µM: concentration of 10 μM. The protocol:
This assay measures cholesterol absorption inhibitory activity by adding mixed micelles containing [^14C] cholesterol to cells and measuring cholesterol taken in the cells as oleic acid cholesteryl ester. The assay is conducted after Caco-2 cells are seeded on multi-well plates and cultured (culture medium: DMEM containing 10% fetal bovine serum, 1% non-essential amino acids, 1% penicillin, and 1% streptomycin) for 2 weeks. To each well, the micelle solution (in an amount required to provide the following final concentrations: 600 μM of sodium oleate, 50 μM of phosphatidyl choline, 5 mM of sodium taurocholate, 2.5 μM of cholesterol, and 2.5 μM of [^14C] cholesterol) and a test compound solution (in an amount required to provide the final concentration of 0.5 to 25 μM) or a solvent as a control are added, and incubation is started at 37° C. 24 hours later, the culture medium is removed, and the lipid component is extracted with hexane/2-propanol (3:2, v/v) and applied onto thin-layer silica gel plates. After drying, each plate is eluted with a mixture of hexane, diethyl ether, and acetic acid in a ratio of 83:16:1. The plates are photoexposed on imaging plates and analyzed using BAS-2500 (FUJIFILM). The amounts of light exposure of the areas corresponding to the cholesteryl ester are calculated. Background is measured using a blank space of the plate. Inhibition rates are calculated using values obtained by subtracting the background values from both values of the control and the test sample, respectively, in accordance with the following equation. A test value is calculated as a percentage (%) with respect to the control.
In the Equation 1, A is the control group, BG is a background, and B is the test compound.
The following results were obtained from the measurement by this method on cholesterol absorption inhibitory activity of the compounds of the present invention. The following results were obtained by the evaluation using concentrations of 10 μM and/or 12.5 μM.

The mark [2] stands for this setting: read-out: serum LDL-C lowering effect (suppression rate of an increase in serum LDL-C concentration).
The mark [3] stands for this setting: read-out: serum TC lowering effect (suppression rate of an increase in serum TC concentration).
Setting [4] is: read-out: serum TG lowering effect (serum TG lowering rate).
Where [5] appears, read: read-out: liver TC lowering effect (suppression rate of an increase in liver TC concentration).

Turning to `COc1ccncc1-c1ccc(N2C(=O)[C@H](SC[C@H](O)c3ccc(Cl)cc3)[C@H]2c2ccc(O)cc2)cc1` [Example 61, (3R,4R)-3-[(2R)-2-(4-chlorophenyl)-2-hydroxyethylthio]-4-(4-hydroxyphenyl)-1-[4-(4-methoxypyridin-3-yl)phenyl]azetidin-2-one], in experiment [1] (setting [2]), the inhibition in vivo at 0.1 mg/kg was not below 50%. The inhibition at 12.5 µM in the experiment with Caco-2 cells is not below 60%.
As for `O=C1[C@H](SC[C@H](O)c2ccc3occc3c2)[C@@H](c2ccc(O)cc2)N1c1ccc(-c2cccnc2)cc1` [Example 31, (3R,4R)-3-((2R)-2-benzo[b]furan-5-yl-2-hydroxyethylthio)-4-(4-hydroxyphenyl)-1-[4-(pyridin-3-yl)phenyl]azetidin-2-one], the inhibition in vivo at 0.01 mg/kg in experiment [1] (setting [3]) is not below 30%. In experiment [1] (setting [4]), the inhibition in vivo at 0.1 mg/kg was not below 20%. In the experiment on Caco-2 cells, the inhibition at 10 µM was not below 50% and the inhibition at 12.5 µM was not below 60%.
With `Cc1cc(O)ccc1[C@@H]1[C@@H](SC[C@H](O)c2ccc(F)cc2)C(=O)N1c1ccc(-c2cccnc2)cc1` [Example 38, (3R,4R)-3-[(2R)-2-(4-fluorophenyl)-2-hydroxyethylthio]-4-(4-hydroxy-2-methylphenyl)-1-[4-(pyridin-3-yl)phenyl]azetidin-2-one], in experiment [1] (setting [2]), the inhibition in vivo at 0.01 mg/kg was not below 30% and the inhibition in vivo at 0.1 mg/kg was not below 50%. The inhibition in vivo at 0.1 mg/kg in experiment [1] (setting [3]) is not below 50%. Also, in the experiment on Caco-2 cells, the inhibition at 10 µM is not below 50%.
For `CN(C)c1ccc(-c2ccc(N3C(=O)[C@H](SC[C@H](O)c4ccc(F)cc4)[C@H]3c3ccc(O)cc3)cc2)cn1` [Example 22, (3R,4R)-3-[(2R)-2-(4-fluorophenyl)-2-hydroxyethylthio]-1-[4-(6-dimethylaminopyridin-3-yl)phenyl]-4-(4-hydroxyphenyl)azetidin-2-one], in experiment [1] (setting [5]), the inhibition in vivo at 0.01 mg/kg is not below 30%. For the same molecule, in experiment [1] (setting [2]), the inhibition in vivo at 0.01 mg/kg is not below 30% and the inhibition in vivo at 0.1 mg/kg is not below 50%. In addition, the inhibition in vivo at 0.1 mg/kg in experiment [1] (setting [3]) was not below 50%. Further, in the experiment on Caco-2 cells, the inhibition at 10 µM is not below 50% and the inhibition at 12.5 µM was not below 60%.
As to `COc1ccc(-c2ccc(N3C(=O)[C@H](SC[C@H](O)c4ccc(F)cc4)[C@H]3c3ccc(O)cc3)cc2)c(OC)n1` [Example 7, (3R,4R)-3-[(2R)-2-(4-fluorophenyl)-2-hydroxyethylthio]-1-[4-(2,6-dimethoxypyridin-3-yl)phenyl]-4-(4-hydroxyphenyl)azetidin-2-one], in experiment [1] (setting [4]), the inhibition in vivo at 0.1 mg/kg is not below 20%. The inhibition at 10 µM in the experiment with Caco-2 cells is not below 50%.
Take `N#Cc1cncc(-c2ccc(N3C(=O)[C@H](SC[C@H](O)c4ccc(Cl)cc4)[C@H]3c3ccc(O)cc3)cc2)c1` [Example 58, 5-(4-{(3R,4R)-3-[(2R)-2-(4-chlorophenyl)-2-hydroxyethylthio]-4-(4-hydroxyphenyl)-2-oxoazetidinyl}phenyl)pyridine-3-carbonitrile]: the inhibition in vivo at 0.01 mg/kg in experiment [1] (setting [5]) is not below 30%. Also, the inhibition in vivo at 0.01 mg/kg in experiment [1] (setting [2]) is not below 30%. Besides, the inhibition in vivo at 0.1 mg/kg in experiment [1] (setting [4]) is not below 20%. Moreover, in the experiment with Caco-2 cells, the inhibition at 10 µM was not below 50% and the inhibition at 12.5 µM is not below 60%.
`O=C1[C@H](SC[C@H](O)c2ccc(Cl)cc2)[C@@H](c2ccc(O)cc2)N1c1ccc(-c2cncc(Cl)c2)cc1` [Example 87, (3R,4R)-3-[(2R)-2-(4-chlorophenyl)-2-hydroxyethylthio]-1-[4-(5-chloropyridin-3-yl)phenyl]-4-(4-hydroxyphenyl)azetidin-2-one]: the inhibition in vivo at 0.01 mg/kg in experiment [1] (setting [5]), in experiment [1] (setting [2]) and in experiment [1] (setting [3]) was not below 30% in each case. The inhibition at 12.5 µM in the experiment with Caco-2 cells was not below 60%.
As to `Cc1cc(O)ccc1[C@@H]1[C@@H](SC[C@H](O)c2ccc(F)cc2)C(=O)N1c1ccc(-c2cncc(C(F)(F)F)c2)cc1` [Example 99, (3R,4R)-3-[(2R)-2-(4-fluorophenyl)-2-hydroxyethylthio]-4-(4-hydroxy-2-methylphenyl)-1-[4-(5-trifluoromethylpyridin-3-yl)phenyl]azetidin-2-one], the inhibition in vivo at 0.1 mg/kg in experiment [1] (setting [4]) is not below 20%. Also, the inhibition at 12.5 µM in the experiment with Caco-2 cells is not below 60%.
For `N#Cc1ccc(-c2ccc(N3C(=O)[C@H](SC[C@H](O)c4ccc(F)cc4)[C@H]3c3ccc(O)cc3)cc2)cn1` [Example 9, 5-(4-{(3R,4R)-3-[(2R)-2-(4-fluorophenyl)-2-hydroxyethylthio]-4-(4-hydroxyphenyl)-2-oxoazetidinyl}phenyl)pyridine-2-carbonitrile], in experiment [1] (setting [4]), the inhibition in vivo at 0.1 mg/kg is not below 20%. Besides, the inhibition at 10 µM with Caco-2 cells was not below 50%.
In the case of `O=C1[C@H](SC[C@H](O)c2ccc3sccc3c2)[C@@H](c2ccc(O)cc2)N1c1ccc(-c2cccnc2)cc1` [Example 83, (3R,4R)-3-((2R)-2-benzo[b]thiophen-5-yl-2-hydroxyethylthio)-4-(4-hydroxyphenyl)-1-[4-(pyridin-3-yl)phenyl]azetidin-2-one], the inhibition in vivo at 0.1 mg/kg in experiment [1] (setting [2]) and in experiment [1] (setting [3]) was not below 50% each time. Moreover, the inhibition at 12.5 µM in the experiment on Caco-2 cells was not below 60%.
Regarding `O=C1[C@H](SC[C@H](O)c2ccc(F)cc2)[C@@H](c2ccc(O)cc2)N1c1ccc(-c2cccnc2Cl)cc1` [Example 15, (3R,4R)-3-[(2R)-2-(4-fluorophenyl)-2-hydroxyethylthio]-1-[4-(2-chloropyridin-3-yl)phenyl]-4-(4-hydroxyphenyl)azetidin-2-one], the inhibition in vivo at 0.1 mg/kg in experiment [1] (setting [2]) was not below 50%; in experiment [1] (setting [4]) it was not below 20%. Moreover, the inhibition at 10 µM in the experiment on Caco-2 cells is not below 50%.
For the molecule `Cc1ccncc1-c1ccc(N2C(=O)[C@H](SC[C@H](O)c3ccc(F)cc3)[C@H]2c2ccc(O)cc2)cc1` [Example 8, (3R,4R)-3-[(2R)-2-(4-fluorophenyl)-2-hydroxyethylthio]-4-(4-hydroxyphenyl)-1-[4-(4-methylpyridin-3-yl)phenyl]azetidin-2-one], in experiment [1] (setting [4]), the inhibition in vivo at 0.1 mg/kg was not below 20%. The inhibition at 10 µM with Caco-2 cells was not below 50%.
For the molecule `COc1ncccc1-c1ccc(N2C(=O)[C@H](SC[C@H](O)c3ccc(F)cc3)[C@H]2c2ccc(O)cc2)cc1` [Example 6, (3R,4R)-3-[(2R)-2-(4-fluorophenyl)-2-hydroxyethylthio]-4-(4-hydroxyphenyl)-1-[4-(2-methoxypyridin-3-yl)phenyl]azetidin-2-one], the inhibition in vivo at 0.1 mg/kg in experiment [1] (setting [3]) is not below 50%; in experiment [1] (setting [4]), not below 20%. Moreover, the inhibition at 12.5 µM in the experiment with Caco-2 cells was not below 60%.
As to `O=C1[C@H](SC[C@H](O)c2ccc(F)cc2)[C@@H](c2ccc(O)cc2)N1c1ccc(-c2cncc(F)c2)cc1` [Example 55, (3R,4R)-3-[(2R)-2-(4-fluorophenyl)-2-hydroxyethylthio]-1-[4-(5-fluoropyridin-3-yl)phenyl]-4-(4-hydroxyphenyl)azetidin-2-one], the inhibition in vivo at 0.01 mg/kg in experiment [1] (setting [5]), in experiment [1] (setting [2]) and in experiment [1] (setting [3]) was not below 30% in each case. Moreover, the inhibition in vivo at 0.1 mg/kg in experiment [1] (setting [4]) was not below 20%. Besides, the “a serum TC lowering effect at a dose of 0.1 mg/kg” value in experiment [1] is recorded as 130%. Moreover, in the experiment with Caco-2 cells, the inhibition at 10 µM was not below 50%.
Turning to `O=C1[C@H](SC[C@H](O)c2ccc(Cl)c(F)c2)[C@@H](c2ccc(O)cc2)N1c1ccc(-c2cccnc2)cc1` [Example 81, (3R,4R)-3-[(2R)-2-(4-chloro-3-fluorophenyl)-2-hydroxyethylthio]-4-(4-hydroxyphenyl)-1-[4-(pyridin-3-yl)phenyl]azetidin-2-one], the inhibition in vivo at 0.1 mg/kg in experiment [1] (setting [2]) and in experiment [1] (setting [3]) was not below 50% in each case. For the same molecule, the inhibition at 12.5 µM in the experiment with Caco-2 cells is not below 60%.
For the molecule `O=C1[C@H](SC[C@H](O)c2ccc(F)cc2)[C@@H](c2ccc(O)cc2)N1c1ccc(-c2cncc(C(F)(F)F)c2)cc1` [Example 51, (3R,4R)-3-[(2R)-2-(4-fluorophenyl)-2-hydroxyethylthio]-4-(4-hydroxyphenyl)-1-[4-(5-trifluoromethylpyridin-3-yl)phenyl]azetidin-2-one], the inhibition in vivo at 0.01 mg/kg in experiment [1] (setting [3]) is not below 30%. Besides, the inhibition in vivo at 0.1 mg/kg in experiment [1] (setting [4]) is not below 20%. The “a serum TC lowering effect at a dose of 0.1 mg/kg” value in experiment [1] stood at 104%. Further, in the experiment on Caco-2 cells, the inhibition at 10 µM was not below 50%.
